Patent US5430055A, “Inhibitor of squalene synthase” (Pfizer Inc., priority 1994, dated 1995)
pIC50: −log10 of the molar value.

Key:
[1] = system: Cryptococcus bhutanensis, Sensitive Strain (against zaragozic Acid A); experiment: Antifungal bioassay, zone of inhibition, sensitive strain (against zaragozic acid A); format: cell-based; settings: yeast nitrogen based medium, 28° C., 2 to 3 days
Experimental: (§1) The antifungal activity of the compound I was determined with a bioassay such as Cryptococcus bhutanensis FD 23971. A ten-day-old slant of C. bhutanensis was washed with 10 ml of sterile water, and 300 μl of the suspension was mixed with an assay medium consisting of 0.67% of yeast nitrogen based medium (DIFCO) and 0.5% of glucose. 150 ml of the warm medium was poured onto a sterile, polystyrene bioassay plate (245×245×20 mm) and was left to solidify. The solid medium was bored into well-separated wells with a size #2 cork bore, and 25 μl of whole broth or extracted broth was spotted into the wells. The plates were incubated at 28° C. for 2 to 3 days and the zone of inhibition was measured.
(§2) The zones of inhibition against Cryptococcus bhutanensis on a yeast nitrogen based medium are as follows: […]

[2] = system: Cryptococcus bhutanensis, Resistant Strain; experiment: Antifungal bioassay, zone of inhibition, resistant strain; format: cell-based; settings: yeast nitrogen based medium, 28° C., 2 to 3 days
Experimental: as §1, §2

squalene synthase = biological target: T1, squalene synthase (Homo sapiens, UniProt P37268); experiment: Squalene Synthase Inhibition Assay; format: biochemical; settings: microsomal protein, 30 minutes at 37° C., pH 7.4
T1 sequence (P37268 1-417): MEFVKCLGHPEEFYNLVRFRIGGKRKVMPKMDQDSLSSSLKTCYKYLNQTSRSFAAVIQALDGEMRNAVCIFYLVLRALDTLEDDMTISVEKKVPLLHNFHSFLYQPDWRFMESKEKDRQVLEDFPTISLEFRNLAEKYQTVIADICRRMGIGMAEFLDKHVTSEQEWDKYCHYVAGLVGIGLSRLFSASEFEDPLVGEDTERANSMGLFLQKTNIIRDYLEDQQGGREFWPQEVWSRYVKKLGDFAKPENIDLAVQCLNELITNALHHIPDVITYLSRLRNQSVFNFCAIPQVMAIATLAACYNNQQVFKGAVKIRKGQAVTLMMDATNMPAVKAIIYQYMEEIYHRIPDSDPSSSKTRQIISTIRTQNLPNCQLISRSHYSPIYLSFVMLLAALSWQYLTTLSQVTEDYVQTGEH
Experimental: The squalene synthase inhibition assay was conducted in a final volume of 75 μl. The reaction is initiated by addition of 25 μl of the diluted and deoxygenated microsomal suspension to a mixture of 47 μl of the deoxygenated SQS substrate/cofactor solution and 3 μl of the deoxygenated test compound solution as set out in Table 6.
Glucose-6-phosphate 0.95 U
The microsomal suspensions were diluted to a microsomal protein concentration of 1 mg/ml and deoxygenated by repetitive cycles of evacuation and airation with nitrogen. […] Control incubations received 3 μl of deoxygenated dimethyl sulfoxide and enzyme blanks received 25 μl of deoxygenated PMED buffer (50 mM K2 PO4 (pH=7.4), 5 mM MgCl2, 1 mM EDTA, 5 mM dithiothreitol). Assay tubes were immediately flushed with nitrogen and capped, and the solution was vortexed gently. Following 30 minutes of incubation at 37° C., reactions were terminated by addition of 40 μl of 10M sodium hydroxide. […] The region of the chromatogram from 1 cm below the squalene band (visualized with iodine vapors) to the top of the chromatogram was removed and counted in a liquid scintillation counter using Aquasol-2 liquid scintillation fluid. […]
SQS activity (overall reaction) is calculated as pmoles of [3H] squalene formed from [1-3H] […]

ras farnesyltransferase = biological target: T2, ras farnesyltransferase (Rattus norvegicus, UniProt Q02293+Q04631); experiment: ras Farnesyltransferase inhibition assay; format: biochemical; settings: rat brain cytosol, H-ras 4 μM, 30 minutes at 37° C., pH 7.5
T2 construct: diluted rat brain cytosol; from tissue; host or cells: rat brain cytosol
Experimental: The ras farnesyltransferase inhibition assay was conducted in a final volume of 25 μL. The reaction is initiated by addition of 10 μpL of the diluted rat brain cytosol to a mixture of 15 μL of the ras farnesyltransferase substrate/cofactor solution and 0.3 μL of test compound solution as set out in Table 7.
The rat brain cytosols were diluted to a protein concentration of 3.0 mg/mL. Test compound solutions were prepared in dimethyl sulfoxide at concentrations of 25 mM (final assay concentration 300 μM). Control incubations received 0.3 μL of dimethyl sulfoxide and enzyme blanks received 10 μL rat brain homogenization buffer (50 mM tris HCl (pH=7.5), 5 mM dithiothreitol, 0.2M KCl, 20 μM ZnCl2). After a 30 minute incubation at 37° C., the reaction was terminated by addition of 200 μL of 10% (v/v) HCl in EtOH. After an additional 15 minute incubation at 37° C., 300 μl absolute EtOH were added and the entire sample was applied to a filtration well of a Packard Unifilter-GF/B 96-well plate under vacuum. After complete sample addition, the filter well was washed four times with 500 μl each of absolute ethanol and allowed to dry. The bottom of the Unifilter-GF/B plate was then sealed, 50 μl Microscint-20 liquid scintillation fluid were added to each well and the plate was heat-sealed and then counted in a Packard Top-Count liquid scintillation counter.
ras Farnesyltransferase Assay […]

[3] = system: ras protein farnesylation; settings: background statement; cited from earlier work

| Structure (SMILES) | zone of inhibition [1] [mm] | zone of inhibition [2] [mm] | pIC50 (squalene synthase) | pIC50 (ras farnesyltransferase) | inhibition of farnesylation of ras protein [3] |
| --- | --- | --- | --- | --- | --- |
| C/C=C/CCCCC[C@@H]1C=C2[C@]3(CC(=O)O)CC4=C(C(=O)OC4=O)[C@@H]4[C@H]1C[C@H](C(=O)CC/C=C/C)O[C@]24OC3=O [CP-263,114] | 42 | 45 |  |  |  |
| C/C=C/CCCCC[C@@H]1C=C2[C@]3(CC(=O)O)CC4=C(C(=O)OC4=O)[C@H]([C@H]1C[C@@H](O)C(=O)CC/C=C/C)[C@@]2(O)OC3=O [Fraction 5 compound] | 15 | 22 | 4.32 | 5.22 |  |
| C=C(CC[C@]12O[C@H](C(=O)O)[C@@](O)(C(=O)O)[C@](C(=O)O)(O1)[C@H](OC(=O)/C=C/[C@@H](C)C[C@@H](C)CC)[C@H]2O)[C@@H](OC(C)=O)[C@H](C)Cc1ccccc1 [Zaragozic acid A, reference compound] |  |  |  | 5.52 | inhibit farnesylation of ras protein |
